Results: patent US5041567A, “Antibacterial monic acid derivatives” (Beecham Group plc, priority 1982, dated 1991)
Converted amounts (≈) assume the structure as drawn. Read-outs that look alike come from different tables or passages of the source.

Legend:
[1] = tested on: Strep. pneumoniae CN33; test: MIC against human bacteria in vitro; format: cell-based; conditions: Streptococcus pneumoniae; Strep. pneumoniae CN33; 5% chocolated horse blood agar, 18 hours; read-out: MIC
[2] = tested on: M. suipneumoniae UCD 1; test: MIC against mycoplasma in vitro; format: cell-based; conditions: Mesomycoplasma hyopneumoniae, UCD1, 144 h
[3] = tested on: Strep. agalactiae 2788-B; test: MIC against human bacteria in vitro; format: cell-based; conditions: Streptococcus agalactiae; Strep. agalactiae 2788-B; 5% chocolated horse blood agar, 18 hours; read-out: MIC
[4] = tested on: Bord. bronchiseptica B08; test: MIC against veterinary bacteria in vitro; conditions: Bordetella bronchiseptica, B08, 18 h
Experimental: (§1) The activity of the compounds of the Examples against various veterinarily important bacteria, was assayed in vitro using two-fold serial dilutions in Diagnostic Sensitivity Test Agar inoculated with 10^4 organisms.

[5] = tested on: Staph. aureus Russell; test: MIC against human bacteria in vitro; format: cell-based; conditions: Staphylococcus aureus; Staph. aureus Russell; 5% chocolated horse blood agar, 18 hours; read-out: MIC
[6] = tested on: M. suipneumoniae HK(2); test: MIC against mycoplasma in vitro; format: cell-based; conditions: Mesomycoplasma hyopneumoniae, 144 h
[7] = tested on: Staph. aureus B4 (pen. resistant); test: MIC against veterinary bacteria in vitro; conditions: Staphylococcus aureus, 18 h
Experimental: as §1

[8] = tested on: M. bovis NCTC 10131; test: microbe, parasite or virus in culture; format: cell-based; conditions: NCTC10131, 144 h
[9] = tested on: Ps. aeruginosa NCTC 10662; test: MIC against human bacteria in vitro; format: cell-based; conditions: Pseudomonas aeruginosa, NCTC10662; Ps. aeruginosa NCTC 10662; 5% chocolated horse blood agar, 18 hours; read-out: MIC
[10] = tested on: M. suipneumoniae NB12; test: MIC against mycoplasma in vitro; format: cell-based; conditions: Mesomycoplasma hyopneumoniae
[11] = tested on: M. bovigenitalium ATCC 14173; test: MIC against mycoplasma in vitro; format: cell-based; conditions: 144 h
[12] = tested on: Strep. dysgalactiae SPD1; test: MIC against veterinary bacteria in vitro; conditions: Streptococcus dysgalactiae, SPD1, 18 h
Experimental: as §1

[13] = tested on: M. suipneumoniae LABER; test: MIC against mycoplasma in vitro; format: cell-based; conditions: Mesomycoplasma hyopneumoniae, 144 h
[14] = tested on: M. hyosynoviae ATCC 25591; test: MIC against mycoplasma in vitro; format: cell-based; conditions: 144 h; M. hyosynoviae ATCC 25591; 6 days, 37° C.; read-out: MIC
[15] = tested on: M. hyorhinis ATCC 25021; test: MIC against mycoplasma in vitro; format: cell-based; conditions: Mesomycoplasma hyorhinis, ATCC25021, 144 h
[16] = tested on: M. hyorhinis ATCC 23234; test: MIC against mycoplasma in vitro; format: cell-based; conditions: Mesomycoplasma hyorhinis, ATCC23234, 144 h
[17] = tested on: M. suipneumoniae TAM 6N; test: MIC against mycoplasma in vitro; format: cell-based; conditions: Mesomycoplasma hyopneumoniae, TAM6N, 144 h
[18] = tested on: Strep. suis (group D) SPS11; test: MIC against veterinary bacteria in vitro; conditions: Streptococcus suis, 18 h
Experimental: as §1

[19] = tested on: Staph. aureus W2827; test: MIC against human bacteria in vitro; format: cell-based; conditions: Staphylococcus aureus; Staph. aureus W2827; 5% chocolated horse blood agar, 18 hours; read-out: MIC
[20] = tested on: Erysipelothrix rhusiopathiae NCTC 8163; test: MIC against veterinary bacteria in vitro; conditions: Erysipelothrix rhusiopathiae, NCTC8163, 18 h
Experimental: as §1

[21] = tested on: M. suipneumoniae ATCC 25095; test: MIC against mycoplasma in vitro; format: cell-based; conditions: Mesomycoplasma hyopneumoniae, ATCC25095, 144 h
[22] = tested on: P. mirabilis 889; test: MIC against human bacteria in vitro; format: cell-based; conditions: Proteus mirabilis; P. mirabilis 889; 5% chocolated horse blood agar, 18 hours; read-out: MIC
[23] = tested on: K. aerogenes A; test: MIC against human bacteria in vitro; format: cell-based; conditions: Klebsiella aerogenes; K. aerogenes A; 5% chocolated horse blood agar, 18 hours; read-out: MIC
[24] = tested on: Haemophilus influenzae Wy21; test: MIC against human bacteria in vitro; format: cell-based; conditions: Haemophilus influenzae Wy21; 5% chocolated horse blood agar, 18 hours; read-out: MIC
[25] = tested on: M. suipneumoniae MS 16; test: MIC against mycoplasma in vitro; format: cell-based; conditions: Mesomycoplasma hyopneumoniae, MS16, 144 h
[26] = tested on: Bord. bronchiseptica B09; test: MIC against veterinary bacteria in vitro; conditions: Bordetella bronchiseptica, B09, 18 h
Experimental: as §1

[27] = tested on: Corynebacterium xerosis 9755; test: MIC against human bacteria in vitro; format: cell-based; conditions: Corynebacterium xerosis 9755; 5% chocolated horse blood agar, 18 hours; read-out: MIC
[28] = tested on: Neisseria catarrhalis 1502; test: MIC against human bacteria in vitro; format: cell-based; conditions: Neisseria catarrhalis 1502; 5% chocolated horse blood agar, 18 hours; read-out: MIC
[29] = tested on: M. suipneumoniae J2206/183^b; test: MIC against mycoplasma in vitro; format: cell-based; conditions: Mesomycoplasma hyopneumoniae, 144 h
[30] = tested on: Strep. faecalis I; test: MIC against human bacteria in vitro; format: cell-based; conditions: Enterococcus faecalis; Strep. faecalis I; 5% chocolated horse blood agar, 18 hours; read-out: MIC
[31] = tested on: Corynebacterium pyogenes CY1; test: MIC against veterinary bacteria in vitro; conditions: CY1, 18 h
Experimental: as §1

[32] = tested on: Past. haemolytica PA5; test: MIC against veterinary bacteria in vitro; conditions: Mannheimia haemolytica, PA5, 18 h
Experimental: as §1

## C/C(=C\c1cc(-c2ccccc2)no1)C[C@@H]1OC[C@H](C[C@@H]2O[C@H]2[C@@H](C)[C@H](C)O)[C@@H](O)[C@H]1O [Example 31, 5-(1-Normon-2-yl)-3-phenylisoxazole A]
[1]
  MIC: > 128 mg/L
[2]; M. suipneumoniae UCD 1, 6 days, 37° C., read-out: MIC
  MIC: 10 mg/L (≈ 22.5 µM)
[3]
  MIC: > 128 mg/L
[4]
  MIC: > 80 mg/L
[5]
  MIC: 128 mg/L (≈ 289 µM)
[6]; M. suipneumoniae HK(2), 6 days, 37° C., read-out: MIC
  MIC: 10 mg/L (≈ 22.5 µM)
[7]
  MIC: 10 mg/L (≈ 22.5 µM)
[8]
  MIC: 1 mg/L (≈ 2.25 µM)
[9]
  MIC: > 128 mg/L
[10]; 144 h, M. suipneumoniae NB12, Friis broth, 0.9% agarose, 6 days, 37° C., read-out: MIC
  MIC: 10 mg/L (≈ 22.5 µM)
[11]; M. bovigenitalium ATCC 14173, 6 days, 37° C., read-out: MIC
  MIC: 5 mg/L (≈ 11.3 µM)
[12]
  MIC: > 80 mg/L
[13]; M. suipneumoniae LABER, 6 days, 37° C., read-out: MIC
  MIC: 10 mg/L (≈ 22.5 µM)
[14]
  MIC: 10 mg/L (≈ 22.5 µM)
[15]; M. hyorhinis ATCC 25021, 6 days, 37° C., read-out: MIC
  MIC: 5 mg/L (≈ 11.3 µM)
[16]; M. hyorhinis ATCC 23234, 6 days, 37° C., read-out: MIC
  MIC: 5 mg/L (≈ 11.3 µM)
[17]; M. suipneumoniae TAM 6N, 6 days, 37° C., read-out: MIC
  MIC: 10 mg/L (≈ 22.5 µM)
[18]
  MIC: > 80 mg/L
[19]
  MIC: 128 mg/L (≈ 289 µM)
[20]
  MIC: > 80 mg/L
[21]; M. suipneumoniae ATCC 25095, 6 days, 37° C., read-out: MIC
  MIC: 5 mg/L (≈ 11.3 µM)
[22]
  MIC: > 128 mg/L
[23]
  MIC: > 128 mg/L
[24]
  MIC: 16 mg/L (≈ 36.1 µM)
[25]; M. suipneumoniae MS 16, 6 days, 37° C., read-out: MIC
  MIC: 5 mg/L (≈ 11.3 µM)
[26]
  MIC: 80 mg/L (≈ 180 µM)
[27]
  MIC: > 128 mg/L
[28]
  MIC: 8 mg/L (≈ 18 µM)
[29]; M. suipneumoniae J2206/183^b, 6 days, 37° C., read-out: MIC
  MIC: 10 mg/L (≈ 22.5 µM)
[30]
  MIC: > 128 mg/L
[31]
  MIC: > 80 mg/L
[32]
  MIC: > 80 mg/L

## C/C(=C\c1cc(-c2ccccc2)on1)C[C@@H]1OC[C@H](C[C@@H]2O[C@H]2[C@@H](C)[C@H](C)O)[C@@H](O)[C@H]1O [Example 34, 3-(1-Normon-2-yl)-5-phenylisoxazole A]
[1]
  MIC: 64 mg/L (≈ 144 µM)
[2]
  MIC: 2.5 mg/L (≈ 5.64 µM)
[3]
  MIC: 64 mg/L (≈ 144 µM)
[4]
  MIC: > 80 mg/L
[5]
  MIC: 16 mg/L (≈ 36.1 µM)
[6]
  MIC: 2.5 mg/L (≈ 5.64 µM)
[7]
  MIC: 2.5 mg/L (≈ 5.64 µM)
[8]
  MIC: 0.25 mg/L (≈ 0.564 µM)
[9]
  MIC: > 128 mg/L
[10]; NB12, 144 h
  MIC: 2.5 mg/L (≈ 5.64 µM)
[11]
  MIC: 1 mg/L (≈ 2.25 µM)
[12]
  MIC: 10 mg/L (≈ 22.5 µM)
[13]
  MIC: 1 mg/L (≈ 2.25 µM)
[14]
  MIC: 5 mg/L (≈ 11.3 µM)
[15]
  MIC: 1 mg/L (≈ 2.25 µM)
[16]
  MIC: 2.5 mg/L (≈ 5.64 µM)
[17]
  MIC: 2.5 mg/L (≈ 5.64 µM)
[18]
  MIC: 80 mg/L (≈ 180 µM)
[19]
  MIC: 16 mg/L (≈ 36.1 µM)
[20]
  MIC: > 80 mg/L
[21]
  MIC: 1 mg/L (≈ 2.25 µM)
[22]
  MIC: > 128 mg/L
[23]
  MIC: > 128 mg/L
[24]
  MIC: 2 mg/L (≈ 4.51 µM)
[25]
  MIC: 1 mg/L (≈ 2.25 µM)
[26]
  MIC: 40 mg/L (≈ 90.2 µM)
[27]
  MIC: > 128 mg/L
[28]
  MIC: 4 mg/L (≈ 9.02 µM)
[29]
  MIC: 2.5 mg/L (≈ 5.64 µM)
[30]
  MIC: > 128 mg/L
[31]
  MIC: > 80 mg/L
[32]
  MIC: > 80 mg/L
